Test results as given in patent US6479435B1, “Diaryl ethers and processes for their preparation and herbicidal and desiccant compositions containing them” (ISK Americas Incorporated, priority 1997, dated 2002).

Experiments:
Assay type in all cases: in vivo
[1] = test system: velvetleaf (Abutilon theophrasti, ABUTH); test: Post-emerge greenhouse herbicide test, phytotoxicity rating; settings: Abutilon theophrasti, post-emergence, 336 h, 14 days after application, scale 0-100; for pest or weed control at 63 g/ha: rate 63 g ai/ha; for pest or weed control at 500 g/ha: rate 500 g ai/ha
Outline: (§1)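 Scores use a 0 (no damage) to 100 (complete kill) scale, taken 14 days after a foliar spray. Acetone solutions with 0.25% v/v non-ionic surfactant were applied by track sprayer at 187 l/ha and 63-1000 g ai/ha to bottom-watered 2-3 leaf plants.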

[2] = test system: Johnsongrass (Sorghum halepense, SORHA); test: as above; settings: Sorghum halepense, post-emergence, 336 h, 14 days after application, scale 0-100; for pest or weed control at 63 g/ha: rate 63 g ai/ha; for pest or weed control at 500 g/ha: rate 500 g ai/ha
Outline: as §1

[3] = test system: sicklepod (Cassia obtusifolia, CASOB); test: as above; settings: Senna obtusifolia, post-emergence, 336 h, 14 days after application, scale 0-100; for pest or weed control at 63 g/ha: rate 63 g ai/ha; for pest or weed control at 500 g/ha: rate 500 g ai/ha
Outline: as §1

[4] = test system: green foxtail (Setaria viridis, SETVI); test: as above; settings: Setaria viridis, post-emergence, 336 h, 14 days after application, scale 0-100; for pest or weed control at 63 g/ha: rate 63 g ai/ha; for pest or weed control at 500 g/ha: rate 500 g ai/ha
Outline: as §1

[5] = test system: redroot pigweed (Amaranthus retroflexus, AMARE); test: as above; settings: Amaranthus retroflexus, post-emergence, 336 h, 14 days after application, scale 0-100; for pest or weed control at 63 g/ha: rate 63 g ai/ha; for pest or weed control at 500 g/ha: rate 500 g ai/ha
Outline: as §1

[6] = test system: ivyleaf morningglory (Ipomoea hederacea, IPOHE); test: as above; settings: Ipomoea, post-emergence, 336 h, 14 days after application, scale 0-100; for pest or weed control at 63 g/ha: rate 63 g ai/ha; for pest or weed control at 500 g/ha: rate 500 g ai/ha
Outline: as §1

[7] = test system: barnyardgrass (Echinochloa crusgalli, ECHCG); test: as above; settings: Echinochloa crus-galli, post-emergence, 336 h, 14 days after application, scale 0-100; for pest or weed control at 63 g/ha: rate 63 g ai/ha; for pest or weed control at 500 g/ha: rate 500 g ai/ha
Outline: as §1

[8] = test system: large crabgrass (Digitaria sanguinalis, DIGSA); test: as above; settings: Digitaria sanguinalis, post-emergence, 336 h, 14 days after application, scale 0-100; for pest or weed control at 63 g/ha: rate 63 g ai/ha; for pest or weed control at 500 g/ha: rate 500 g ai/ha
Outline: as §1

[9] = test system: lambsquarters (Chenopodium album, CHEAL); test: as above; settings: Chenopodium album, post-emergence, 336 h, 14 days after application, scale 0-100; for pest or weed control at 63 g/ha: rate 63 g ai/ha; for pest or weed control at 500 g/ha: rate 500 g ai/ha
Outline: as §1

[10] = test system: velvetleaf (Abutilon theophrasti, ABUTH); test: Pre-emerge greenhouse herbicide test, phytotoxicity rating; settings: Abutilon theophrasti, pre-emergence, 336 h, 14 days after application, rating scale 0-100; for pest or weed control at 125 g/ha: Rate 125 g al/ha; for pest or weed control at 500 g/ha: Rate 500 g al/ha
Outline: (§2)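 Visual 0–100 injury rating (100 = all plants dead) taken 14 days after treatment. Rates of 125–1000 g ai/ha in acetone, 187 l/ha, were sprayed onto soil one day post-sowing; pots were surface-watered to incorporate, then bottom-watered.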

[11] = test system: green foxtail (Setaria viridis, SETVI); test: as above; settings: Setaria viridis, pre-emergence, 336 h, 14 days after application, rating scale 0-100; for pest or weed control at 125 g/ha: Rate 125 g al/ha; for pest or weed control at 500 g/ha: Rate 500 g al/ha
Outline: as §2

[12] = test system: redroot pigweed (Amaranthus retroflexus, AMARE); test: as above; settings: Amaranthus retroflexus, pre-emergence, 336 h, 14 days after application, rating scale 0-100; for pest or weed control at 125 g/ha: Rate 125 g al/ha; for pest or weed control at 500 g/ha: Rate 500 g al/ha
Outline: as §2

[13] = test system: ivyleaf morningglory (Ipomoea hederacea, IPOHE); test: as above; settings: Ipomoea, pre-emergence, 336 h, 14 days after application, rating scale 0-100; for pest or weed control at 125 g/ha: Rate 125 g al/ha; for pest or weed control at 500 g/ha: Rate 500 g al/ha
Outline: as §2

[14] = test system: large crabgrass (Digitaria sanguinalis, DIGSA); test: as above; settings: Digitaria sanguinalis, pre-emergence, 336 h, 14 days after application, rating scale 0-100; for pest or weed control at 125 g/ha: Rate 125 g al/ha; for pest or weed control at 500 g/ha: Rate 500 g al/ha
Outline: as §2

[15] = test system: lambsquarters (Chenopodium album, CHEAL); test: as above; settings: Chenopodium album, pre-emergence, 336 h, 14 days after application, rating scale 0-100; for pest or weed control at 125 g/ha: Rate 125 g al/ha; for pest or weed control at 500 g/ha: Rate 500 g al/ha
Outline: as §2

## Nn1c(C(F)(F)F)cc(=O)n(-c2cc(Oc3ncccc3C(F)(F)F)c(Cl)cc2F)c1=O [Compound 9-7, 1-Amino-3-[4-chloro-2-fluoro-5-(3-trifluoromethyl-2-pyridyloxy)phenyl]-6-trifluoromethyl-1,2,3,4-tetrahydropyrimidine-2,4-dione]
[1]
  pest or weed control at 63 g/ha: 100%
  pest or weed control at 500 g/ha: 100%
[2]
  pest or weed control at 63 g/ha: 80%
  pest or weed control at 500 g/ha: 90%
[3]
  pest or weed control at 63 g/ha: 90%
  pest or weed control at 500 g/ha: 90%
[4]
  pest or weed control at 63 g/ha: 40%
  pest or weed control at 500 g/ha: 70%
[5]
  pest or weed control at 63 g/ha: 100%
  pest or weed control at 500 g/ha: 100%
[6]
  pest or weed control at 63 g/ha: 100%
  pest or weed control at 500 g/ha: 100%
[7]
  pest or weed control at 63 g/ha: 60%
  pest or weed control at 500 g/ha: 70%
[8]
  pest or weed control at 63 g/ha: 10%
  pest or weed control at 500 g/ha: 30%
[9]
  pest or weed control at 63 g/ha: 100%
  pest or weed control at 500 g/ha: 100%
[10]
  pest or weed control at 125 g/ha: 100%
  pest or weed control at 500 g/ha: 100%
[11]
  pest or weed control at 125 g/ha: 100%
  pest or weed control at 500 g/ha: 100%
[12]
  pest or weed control at 125 g/ha: 100%
  pest or weed control at 500 g/ha: 100%
[13]
  pest or weed control at 125 g/ha: 70%
  pest or weed control at 500 g/ha: 100%
[14]
  pest or weed control at 125 g/ha: 100%
  pest or weed control at 500 g/ha: 100%
[15]
  pest or weed control at 125 g/ha: 100%
  pest or weed control at 500 g/ha: 100%

## Cc1nsc(Oc2cc(-n3c(=O)cc(C(F)(F)F)n(N)c3=O)c(F)cc2Cl)c1[N+](=O)[O-] [Compound 9-14, 1-Amino-3-[4-Chloro-2-fluoro-5-(3-methyl-4-nitroisothiazol-5-yloxy)phenyl]-6-trifluoromethyl-1,2,3,4-tetrahydropyrimidine-2,4-dione]
[1]
  pest or weed control at 63 g/ha: 100%
  pest or weed control at 500 g/ha: 100%
[2]
  pest or weed control at 63 g/ha: 40%
  pest or weed control at 500 g/ha: 100%
[3]
  pest or weed control at 63 g/ha: 60%
  pest or weed control at 500 g/ha: 100%
[4]
  pest or weed control at 63 g/ha: 80%
  pest or weed control at 500 g/ha: 100%
[5]
  pest or weed control at 63 g/ha: 100%
  pest or weed control at 500 g/ha: 100%
[6]
  pest or weed control at 63 g/ha: 95%
  pest or weed control at 500 g/ha: 100%
[7]
  pest or weed control at 63 g/ha: 10%
  pest or weed control at 500 g/ha: 100%
[8]
  pest or weed control at 63 g/ha: 30%
  pest or weed control at 500 g/ha: 100%
[9]
  pest or weed control at 63 g/ha: 80%
  pest or weed control at 500 g/ha: 100%
[10]
  pest or weed control at 125 g/ha: 100%
  pest or weed control at 500 g/ha: 100%
[11]
  pest or weed control at 125 g/ha: 100%
  pest or weed control at 500 g/ha: 100%
[12]
  pest or weed control at 125 g/ha: 100%
  pest or weed control at 500 g/ha: 100%
[13]
  pest or weed control at 125 g/ha: 100%
  pest or weed control at 500 g/ha: 100%
[14]
  pest or weed control at 125 g/ha: 100%
  pest or weed control at 500 g/ha: 100%
[15]
  pest or weed control at 125 g/ha: 100%
  pest or weed control at 500 g/ha: 100%

## N#Cc1ccc(Oc2cc(-n3c(=O)cc(C(F)(F)F)n(N)c3=O)c(F)cc2Cl)nc1 [Compound 9-10, 1-Amino-3-[4-chloro-2-fluoro-5-(5-cyano-2-pyridyloxy)phenyl]-6-trifluoromethyl-1,2,3,4-tetrahydropyrimidine-2,4-dione]
[1]
  pest or weed control at 63 g/ha: 100%
  pest or weed control at 500 g/ha: 100%
[2]
  pest or weed control at 63 g/ha: 60%
  pest or weed control at 500 g/ha: 95%
[3]
  pest or weed control at 63 g/ha: 40%
  pest or weed control at 500 g/ha: 50%
[4]
  pest or weed control at 63 g/ha: 20%
  pest or weed control at 500 g/ha: 70%
[5]
  pest or weed control at 63 g/ha: 100%
  pest or weed control at 500 g/ha: 80%
[6]
  pest or weed control at 63 g/ha: 100%
  pest or weed control at 500 g/ha: 100%
[7]
  pest or weed control at 63 g/ha: 20%
  pest or weed control at 500 g/ha: 95%
[8]
  pest or weed control at 63 g/ha: 10%
  pest or weed control at 500 g/ha: 20%
[9]
  pest or weed control at 63 g/ha: 100%
  pest or weed control at 500 g/ha: 100%
[10]
  pest or weed control at 125 g/ha: 100%
  pest or weed control at 500 g/ha: 100%
[11]
  pest or weed control at 125 g/ha: 100%
  pest or weed control at 500 g/ha: 100%
[12]
  pest or weed control at 125 g/ha: 100%
  pest or weed control at 500 g/ha: 100%
[13]
  pest or weed control at 125 g/ha: 100%
  pest or weed control at 500 g/ha: 100%
[14]
  pest or weed control at 125 g/ha: 90%
  pest or weed control at 500 g/ha: 100%
[15]
  pest or weed control at 125 g/ha: 100%
  pest or weed control at 500 g/ha: 100%
